Measured values from patent publication US9464071B2 (priority 2010, dated 2016).
Where “and” joins values, the source holds several entries; their conditions need not be identical. Identical values can stand only once.

With `COc1cc(OC)cc(N(CCO)c2ccc3ncc(-c4cnn(C)c4)nc3c2)c1` the melting point was 152.97 °C and 153 °C.
In the case of `COc1cc(OC)cc(N(CC2CC2)c2ccc3ncc(-c4cn[nH]c4)nc3c2)c1`, the melting point is reported as 158 to 160 °C and 159 °C.
For `COc1cc(OC)cc(N(CC#Cc2nccn2C)c2ccc3ncc(-c4cnn(C)c4)nc3c2)c1`, the melting point was 193.25 °C and 192 °C.
For `COc1cc(OC)cc(N(c2ccc3ncc(-c4cnn(C)c4)nc3c2)C2COC2)c1`, the melting point was 160.14 °C and 164 °C.
For `COc1cc(OC)cc(N(CCCNCC(F)(F)F)c2ccc3ncc(-c4cnn(C)c4)nc3c2)c1`, the melting point was 123.12 °C and 126 °C.
With `COc1cc(OC)cc(N(CC2CC2)c2ccc3ncc(-c4cnn(CC(C)(C)O)c4)nc3c2)c1` the melting point was 159.08 °C and 159 °C.
With `CNCCn1cc(-c2cnc3ccc(N(CC4CC4)c4cc(OC)cc(OC)c4)cc3n2)cn1` the melting point was 103 °C and 103.14 °C.
In the case of `COc1cc(OC)cc(N(CC2CC2)c2ccc3ncc(-c4cnn(CCC5CCNCC5)c4)nc3c2)c1`, the melting point is reported as 221 °C and 220.78 °C.
In the case of `COc1cc(OC)cc(N(CC#CCO)c2ccc3ncc(-c4cnn(C)c4)nc3c2)c1`, the melting point is reported as 157 °C and 156 °C.
For `CNc1cccc(CN(c2cc(OC)cc(OC)c2)c2ccc3ncc(-c4cnn(C)c4)nc3c2)n1`, the melting point was 181 °C and 180 °C.
In the case of `COc1cc(OC)cc(N(CC(N)=O)c2ccc3ncc(-c4cnn(C)c4)nc3c2)c1`, the melting point is reported as 264 °C and 260.14 °C.
For `CNCCN(c1cc(OC)cc(OC)c1)c1ccc2ncc(-c3cnn(C)c3)nc2c1`, the melting point was 180 to 182 °C and 181 °C.
For `COc1cc(OC)cc(N(CCc2nnn[nH]2)c2ccc3ncc(-c4cnn(C)c4)nc3c2)c1`, the melting point was 196 °C and 195.95 °C.
With `COc1cc(OC)cc(N(CC2CCN(CC(F)(F)F)CC2)c2ccc3ncc(-c4cnn(C)c4)nc3c2)c1` the melting point was 123 °C and 123.5 °C.
With `COc1cc(OC)cc(N(CC2CCN(C(C)C)CC2)c2ccc3ncc(-c4cnn(C)c4)nc3c2)c1` the melting point was 168 °C and 168.08 °C.

Going from `COc1cc(OC)cc(N(CC2CN(Cc3ccccc3)CCO2)c2ccc3ncc(-c4cnn(C)c4)nc3c2)c1` (stereo not shown) to `COc1cc(OC)cc(N(CC2CN(C(C)C)CCO2)c2ccc3ncc(-c4cnn(C)c4)nc3c2)c1` (stereo not shown), the melting point falls from 134 °C to 88 °C.

`COc1cc(OCCO)cc(N(CC2CC2)c2ccc3ncc(-c4cn[nH]c4)nc3c2)c1` and `COc1cc(OCCO)cc(N(CC2CC2)c2ccc3ncc(-c4cnn(CCS(C)(=O)=O)c4)nc3c2)c1` are the same in melting point: 80 °C for the first, 80 °C for the second.

Compared with `COc1cc(OC)cc(N(CC2CC2)c2ccc3ncc(-c4cnn(CCN)c4)nc3c2)c1`, `COCCn1cc(-c2cnc3ccc(N(CC4CC4)c4cc(OC)cc(OC)c4)cc3n2)cn1` is lower in melting point: 130 °C for the first, 101.91 °C for the second.

Compared with `COc1cc(OC)cc(N(CC2CC2)c2ccc3ncc(-c4cnn(CC(C)C)c4)nc3c2)c1`, `CNC(=O)Cn1cc(-c2cnc3ccc(N(CC4CC4)c4cc(OC)cc(OC)c4)cc3n2)cn1` is higher in melting point: 110 °C for the first, 170.82 °C for the second.

Going from `COc1cc(OC)cc(N(CC2OCCO2)c2ccc3ncc(-c4cnn(C)c4)nc3c2)c1` to `COc1cc(OC)cc(N(CC2CO2)c2ccc3ncc(-c4cnn(C)c4)nc3c2)c1` (stereo not shown), the melting point falls from 204.29 °C to 158.57 °C.

Going from `COc1cc(OC)cc(N(CCN2C(=O)c3ccccc3C2=O)c2ccc3ncc(-c4cnn(C)c4)nc3c2)c1` to `CONCCN(c1cc(OC)cc(OC)c1)c1ccc2ncc(-c3cnn(C)c3)nc2c1`, the melting point falls from 215.88 °C to 177 °C.

First: COc1cc(F)cc(N(CC2CC2)c2ccc3ncc(-c4cnn(C)c4)nc3c2)c1
Second: C=Cc1cc(OC)cc(N(CC2CC2)c2ccc3ncc(-c4cnn(C)c4)nc3c2)c1
The melting point of the first is lower: 142 °C for the first, 146 °C for the second.

First: COc1cc(OC)cc(N(CC2CC2)c2ccc3ncc(-c4cnn(CCCN5CCOCC5)c4)nc3c2)c1
Second: COc1cc(OC)cc(N(CC2CC2)c2ccc3ncc(-c4cnn(CCN5CCN(CCO)CC5)c4)nc3c2)c1
The melting point of the first is lower: 123.16 °C for the first, 146.13 °C for the second.

First: COCCNC(=O)C(C)(C)n1cc(-c2cnc3ccc(N(CC4CC4)c4cc(OC)cc(OC)c4)cc3n2)cn1
Second: COc1cc(OC)cc(N(CC2CC2)c2ccc3ncc(-c4cnn(CC(=O)NCCO)c4)nc3c2)c1
The melting point of the first is lower: 104.64 °C for the first, 167.45 °C for the second.

First: COc1cc(OC)cc(N(Cc2cc(C)on2)c2ccc3ncc(-c4cnn(C)c4)nc3c2)c1
Second: CCOC(=O)Cn1cc(CN(c2cc(OC)cc(OC)c2)c2ccc3ncc(-c4cnn(C)c4)nc3c2)nn1
The melting point of the first is higher: 171 °C for the first, 88 °C for the second.

Going from `CNCCN(c1cc(OC)cc(OC)c1)c1ccc2ncc(-c3cn[nH]c3)nc2c1` to `COc1cc(OC)cc(N(CCN)c2ccc3ncc(-c4cn[nH]c4)nc3c2)c1`, the melting point falls from 193.59 °C to 184 °C.

First: CNCCN(c1cc(OC)cc(OCCO)c1)c1ccc2ncc(-c3cnn(C)c3)nc2c1
Second: COc1cc(OCCO)cc(N(CCN)c2ccc3ncc(-c4cnn(C)c4)nc3c2)c1
The melting point of the first is lower: 142 °C for the first, 165 °C for the second.

First: COc1cc(OCCO)cc(N(CCCO)c2ccc3ncc(-c4cnn(C)c4)nc3c2)c1
Second: CNC(=O)OCCN(c1cc(OC)cc(OC)c1)c1ccc2ncc(-c3cnn(C)c3)nc2c1
The melting point of the first is lower: 80 °C for the first, 160 to 162 °C for the second.

First: COc1cc(OC)cc(N(c2ccc3ncc(-c4cnn(C)c4)nc3c2)[C@H]2CC[C@@H](NC(C)C)CC2)c1
Second: COc1cc(OC)cc(N(CCN(C)C(C)C)c2ccc3ncc(-c4cnn(C)c4)nc3c2)c1
The melting point of the first is lower: 83 °C for the first, 126 °C for the second.

Compared with `CNC1CCN(CCCN(c2cc(OC)cc(OC)c2)c2ccc3ncc(-c4cnn(C)c4)nc3c2)C1` (stereo not shown), `COc1cc(OC)cc(N(CCCN2CCC(F)C2)c2ccc3ncc(-c4cnn(C)c4)nc3c2)c1` (stereo not shown) is lower in melting point: 139.15 °C for the first, 125 °C for the second.

First: COc1cc(OC)cc(N(Cc2ccc(Cl)s2)c2ccc3ncc(-c4cnn(Cc5ccc(Cl)s5)c4)nc3c2)c1
Second: COc1cc(OC)cc(N(CC#Cc2ccc(C)cn2)c2ccc3ncc(-c4cnn(C)c4)nc3c2)c1
The melting point of the first is lower: 131.39 °C for the first, 155 °C for the second.

Going from `COc1cc(OC)cc(N(CCNC2CC(C)(C)NC(C)(C)C2)c2ccc3ncc(-c4cnn(C)c4)nc3c2)c1` to `COc1cc(OC)cc(N(CC(F)CN)c2ccc3ncc(-c4cnn(C)c4)nc3c2)c1` (stereo not shown), the melting point rises from 80 °C to 168 °C.

Compared with `COc1ccc(OC)c(N(CCO)c2ccc3ncc(-c4cnn(C)c4)nc3c2)c1`, `COc1cc(OC)cc(N(CC2CNCCN2)c2ccc3ncc(-c4cnn(C)c4)nc3c2)c1` (stereo not shown) is lower in melting point: 191.73 °C for the first, 167 °C for the second.

Going from `COc1cc(F)cc(N(CCO)c2ccc3ncc(-c4cn[nH]c4)nc3c2)c1` to `COc1cc(F)cc(N(CCNC(C)C)c2ccc3ncc(-c4cn[nH]c4)nc3c2)c1`, the melting point rises from 80 °C to 194 °C.

First: COc1cc(OC)cc(N(CCCO)c2ccc3ncc(-c4cnn(C5CCCCO5)c4)nc3c2)c1 (stereo not shown)
Second: COc1cc(OC)cc(N(CC2CC2)c2ccc3ncc(-c4cnn(C5CCNCC5)c4)nc3c2)c1
The melting point of the first is higher: 168.25 °C for the first, 90 °C for the second.

Going from `COc1cc(OC)cc(N(CC2CC2)c2ccc3ncc(-c4cnn(C5CCN(S(C)(=O)=O)CC5)c4)nc3c2)c1` to `COc1cc(C#N)cc(N(CC2CC2)c2ccc3ncc(-c4cnn(C)c4)nc3c2)c1`, the melting point falls from 200 °C to 143 °C.

Going from `[2H]C([2H])([2H])Oc1cc(OC([2H])([2H])[2H])cc(N(c2ccc3ncc(-c4cnn(C)c4)nc3c2)C([2H])([2H])C([2H])([2H])O)c1` to `[2H]C([2H])([2H])Oc1cc(OC([2H])([2H])[2H])cc(N(CCCNCC(F)(F)F)c2ccc3ncc(-c4cnn(C)c4)nc3c2)c1`, the melting point falls from 149 °C to 127 °C.

Going from `COc1cc(OC)cc(N(CC#CC2CCN(C(=O)OC(C)(C)C)CC2)c2ccc3ncc(-c4cnn(C)c4)nc3c2)c1` to `COc1cc(OC)cc(N(CC#CC2(O)CCNCC2)c2ccc3ncc(-c4cnn(C)c4)nc3c2)c1`, the melting point rises from 67 °C to 167 °C.

Compared with `COc1cc(O)cc(N(CCCO)c2ccc3ncc(-c4cn[nH]c4)nc3c2)c1`, `COc1cc(OC)cc(N(CCO)c2ccc3ncc(-c4cnn(C)c4CCCO)nc3c2)c1` is lower in melting point: 125 °C for the first, 62 °C for the second.

Going from `C#CCN(c1cc(OC)cc(OC)c1)c1ccc2ncc(-c3cnn(CC4CCOCC4)c3)nc2c1` to `COc1cc(OC)cc(N(CC2CNC(=O)O2)c2ccc3ncc(-c4cnn(C)c4)nc3c2)c1` (stereo not shown), the melting point rises from 106 °C to 157 °C.

Compared with `COc1cc(OC)cc(N(c2ccc3ncc(-c4cnn(C)c4)nc3c2)S(=O)(=O)N(C)C)c1`, `CCOP(=O)(CCN(c1cc(OC)cc(OC)c1)c1ccc2ncc(-c3cnn(C)c3)nc2c1)OCC` is higher in melting point: 80 °C for the first, 122 °C for the second.

Going from `COc1cc(OC)cc(N(CC2OCCN(C(C)C)C2=O)c2ccc3ncc(-c4cnn(C)c4)nc3c2)c1` (stereo not shown) to `COc1cc(OC)cc(N(CC#Cc2nccs2)c2ccc3ncc(-c4cnn(C)c4)nc3c2)c1`, the melting point falls from 187 °C to 167 °C.

Compared with `COc1cc(OC)cc(N(CCNC(C)C)c2ccc3ncc(-c4cnn(CCS(C)(=O)=O)c4)nc3c2)c1`, `COc1cc(OC)cc(N(CCCNCC(F)(F)F)c2ccc3ncc(-c4cnn(CCCN)c4)nc3c2)c1` is higher in melting point: 148 °C for the first, 175 °C for the second.

Going from `COc1cc(OC)cc(N(CC#Cc2nccc(OC)n2)c2ccc3ncc(-c4cnn(C)c4)nc3c2)c1` to `COc1cc(OC)cc(N(CC#Cc2ccnc(N)n2)c2ccc3ncc(-c4cnn(C)c4)nc3c2)c1`, the melting point falls from 175 °C to 148 °C.

Compared with `COc1cccc(C#CCN(c2cc(OC)cc(OC)c2)c2ccc3ncc(-c4cnn(C)c4)nc3c2)c1`, `COc1cc(OC)cc(N(CC#Cc2cccnc2Br)c2ccc3ncc(-c4cnn(C)c4)nc3c2)c1` is higher in melting point: 85 °C for the first, 176 °C for the second.

Going from `COc1cc(OC)cc(N(CCO)c2ccc3ncc(-c4cnn(C)c4CN(C)C)nc3c2)c1` to `COc1cc(OC)cc(N(CC(=O)Nc2cc(C)ccn2)c2ccc3ncc(-c4cnn(C)c4)nc3c2)c1`, the melting point rises from 176 °C to 212 °C.

First: COc1cc(OC)cc(N(CC#Cc2cc(Cl)nc(N)n2)c2ccc3ncc(-c4cnn(C)c4)nc3c2)c1
Second: COc1cc(OC)cc(N(CC#Cc2cc(C(N)=O)ccn2)c2ccc3ncc(-c4cnn(C)c4)nc3c2)c1
The melting point of the first is higher: 220 °C for the first, 204 °C for the second.

Going from `COc1cc(OC)cc(N(CC#Cc2ncccc2OC)c2ccc3ncc(-c4cnn(C(C)C)c4)nc3c2)c1` to `COc1cccnc1C#CCN(c1ccc2ncc(-c3cnn(C)c3)nc2c1)c1c(F)c(OC)cc(OC)c1F`, the melting point rises from 119 °C to 202 °C.

Compound `COc1cc(OC)cc(N(CC(=O)Nc2nccc(OC)n2)c2ccc3ncc(-c4cnn(C)c4)nc3c2)c1` has a melting point of 241 °C.
